Experimental data: patent US11135234B2, “Effective aminoglycoside antibiotic for multidrug-resistant bacteria” (MICROBIAL CHEMISTRY RESEARCH FOUNDATION, priority 2015, dated 2021)
In brackets after ≈: the same amount, converted by molar mass.

Assays:
P. aeruginosa PAO1 = test: MIC, agar plate dilution method, P. aeruginosa PAO1; assay type: cell-based, Pseudomonas aeruginosa; conditions: Pseudomonas aeruginosa, PAO1, P. aeruginosa PAO1, Sensitive bacterium, read-out: minimal inhibitory concentration (MIC)
Procedure, shortened: (§1)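 Strains were tested on agar plates containing diluted compound, and the MIC (μg/mL) was recorded according to the Japan Society of Chemotherapy protocol.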

E. coli JM109/pMW218 = test: MIC, agar plate dilution method, E. coli JM109/pMW218; assay type: cell-based, Escherichia coli; conditions: Escherichia coli, JM109/PMW218, E. coli JM109/pMW218, Sensitive bacterium, read-out: minimal inhibitory concentration (MIC)
Procedure, shortened: as §1

S. aureus RN4220/pMS520 = test: MIC, agar plate dilution method, S. aureus RN4220/pMS520; assay type: cell-based, Staphylococcus aureus; conditions: Staphylococcus aureus, MRSA, read-out: minimal inhibitory concentration (MIC), S. aureus RN4220/pMS520, MRSA
Procedure, shortened: as §1

P. aeruginosa MSC17707 = test: MIC, agar plate dilution method, P. aeruginosa MSC17707; assay type: cell-based, Pseudomonas aeruginosa; conditions: Pseudomonas aeruginosa, MSC17707, P. aeruginosa MSC17707, AMK-resistant, read-out: minimal inhibitory concentration (MIC)
Procedure, shortened: as §1

S. marcescens TH-0447 = test: MIC, agar plate dilution method, S. marcescens TH-0447; assay type: cell-based, Serratia marcescens; conditions: Serratia marcescens, TH0447, S. marcescens TH-0447, AMK-resistant, read-out: minimal inhibitory concentration (MIC)
Procedure, shortened: as §1

P. aeruginosa PAO1/GN315 = test: MIC, agar plate dilution method, P. aeruginosa PAO1/GN315; assay type: cell-based, Pseudomonas aeruginosa; conditions: Pseudomonas aeruginosa, read-out: minimal inhibitory concentration (MIC), P. aeruginosa PAO1/GN315, AMK-resistant
Procedure, shortened: as §1

E. faecium ATCC19434 = test: MIC, agar plate dilution method, E. faecium ATCC19434; assay type: cell-based, Enterococcus faecium; conditions: Enterococcus faecium, ATCC19434, E. faecium ATCC19434, read-out: minimal inhibitory concentration (MIC)
Procedure, shortened: as §1

S. aureus MF490 = test: MIC, agar plate dilution method, S. aureus MF490; assay type: cell-based, Staphylococcus aureus; conditions: Staphylococcus aureus, MRSA, read-out: minimal inhibitory concentration (MIC)
Procedure, shortened: as §1

P. aeruginosa MSC01035 = test: MIC, agar plate dilution method, P. aeruginosa MSC01035; assay type: cell-based, Pseudomonas aeruginosa; conditions: Pseudomonas aeruginosa, P. aeruginosa MSC01035, ABK-resistant, read-out: minimal inhibitory concentration (MIC)
Procedure, shortened: as §1

S. aureus RN4220 = test: MIC, agar plate dilution method, S. aureus RN4220; assay type: cell-based, Staphylococcus aureus; conditions: Staphylococcus aureus, RN4220, S. aureus RN4220, Sensitive bacterium, read-out: minimal inhibitory concentration (MIC)
Procedure, shortened: as §1

[1] = system: K. pneumoniae ATCC BAA-1705; test: MIC, agar plate dilution method, K. pneumoniae ATCC BAA-1705; assay type: cell-based, Klebsiella pneumoniae; conditions: Klebsiella pneumoniae, ATCCBAA1705, K. pneumoniae ATCC BAA-1705, KPC-producing strain, read-out: minimal inhibitory concentration (MIC)
Procedure, shortened: as §1

[2] = system: K. pneumoniae ATCC BAA-2146; test: MIC, agar plate dilution method, K. pneumoniae ATCC BAA-2146; assay type: cell-based, Klebsiella pneumoniae; conditions: Klebsiella pneumoniae, ATCCBAA2146, K. pneumoniae ATCC BAA-2146, NDM-producing strain, read-out: minimal inhibitory concentration (MIC)
Procedure, shortened: as §1

[3] = system: A. baumannii ATCC BAA-1710; test: MIC, agar plate dilution method, A. baumannii ATCC BAA-1710; assay type: cell-based, Acinetobacter baumannii; conditions: Acinetobacter baumannii, ATCCBAA1710, A. baumannii ATCC BAA-1710, MDRA, read-out: minimal inhibitory concentration (MIC)
Procedure, shortened: as §1

S. marcescens GN6944 = test: MIC, agar plate dilution method, S. marcescens GN6944; assay type: cell-based, Serratia marcescens; conditions: Serratia marcescens, S. marcescens GN6944, GM-resistant, read-out: minimal inhibitory concentration (MIC)
Procedure, shortened: as §1

## CNC1C(O[C@H]2OC(C)[C@@H](N)[C@H](O)C2O)O[C@H]2CC(N)[C@@H](O[C@H]3CC(O)[C@H](N)CC3N)OC2C1O (some centres unmarked) [Compound L5, 5,6″-dideoxyapramycin]
P. aeruginosa PAO1
  MIC: 4 µg/mL (≈ 7.88 µM)
E. coli JM109/pMW218
  MIC: 1 µg/mL (≈ 1.97 µM)
S. aureus RN4220/pMS520
  MIC: 1 µg/mL (≈ 1.97 µM)
P. aeruginosa MSC17707
  MIC: 8 µg/mL (≈ 15.8 µM)
S. marcescens TH-0447
  MIC: 4 µg/mL (≈ 7.88 µM)
P. aeruginosa PAO1/GN315
  MIC: 4 µg/mL (≈ 7.88 µM)
E. faecium ATCC19434
  MIC: 8 µg/mL (≈ 15.8 µM)
S. aureus MF490
  MIC: 4 µg/mL (≈ 7.88 µM)
P. aeruginosa MSC01035
  MIC: 8 µg/mL (≈ 15.8 µM)
S. aureus RN4220
  MIC: 2 µg/mL (≈ 3.94 µM)
[1]
  MIC: 1 µg/mL (≈ 1.97 µM)
[2]
  MIC: 1 µg/mL (≈ 1.97 µM)
[3]
  MIC: 8 µg/mL (≈ 15.8 µM)
S. marcescens GN6944
  MIC: 4 µg/mL (≈ 7.88 µM)
